Publication PMC5742231 (Frontiers in Chemistry, 2017)

How the values were obtained:
[1] = tested on: Bacteriophage ΔTOX:GFP (ϕΔTOX:GFP); assay type: cell-based
S. aureus = details: cited from earlier work
[2] = tested on: different bacterial strains; details: cited from earlier work

Row | Sequence | bacteriophage inactivation activity (in words) [1] | phages inactivated [1] | other results
1 | RIVQRIAKWAKKWYKAGK [Peptide 8.1] | lowest inactivation activity | – | –
2 | RIVQRIKKWLLKWKKLGY [Peptide 5] | – | ~100% | –
3 | GLLKKWLKKWKEFKRIVGY [Peptide 2] | lowest inactivation activity | – | shape of phage neutralizing activity vs. concentration curve [1]: bell curve shaped behavior
4 | ILRWPWWPWRRK [Omiganan, reference compound] | no inactivation activity | – | antimicrobial activity against S. aureus (S. aureus): activity against S. aureus
5 | MVVFSVPKFKSTVAKLLSSA [Random peptide, reference compound] | no inactivation activity | – | antimicrobial activity [2]: no antimicrobial activity
6 | GLLRKWGKKWKEFLRRVWK [Peptide 6.2] | – | ~100% | shape of phage neutralizing activity vs. concentration curve [1]: bell curve shaped behavior
7 | RIVQRILKWLKKWYKLGK [Peptide 8] | – | ~100% | –
